Reference: patent US11178871B2, “Herbicidal pyrimidine compounds” (BASF SE, priority 2016, dated 2021)

Experiments:
Type in all cases: in vivo
Apera spica-venti [1] = assay: greenhouse test, post-emergence treatment, APESV; conditions: post-emergence, 2000 g/ha
Excerpt: (§1) The culture containers used were plastic flowerpots containing loamy sand with approximately 3.0% of humus as the substrate. The seeds of the test plants were sown separately for each species.
(§2) For the post-emergence treatment, the test plants were first grown to a height of 3 to 15 cm, depending on the plant habit, and only then treated with the active ingredients which had been suspended or emulsified in water. For this purpose, the test plants were either sown directly and grown in the same containers, or they were first grown separately as seedlings and transplanted into the test containers a few days prior to treatment.
(§3) Depending on the species, the plants were kept at 10-25° C. or 20-35° C., respectively.
(§4) The test period extended over 2 to 4 weeks. During this time, the plants were tended, and their response to the individual treatments was evaluated.
(§5) Evaluation was carried out using a scale from 0 to 100. 100 means no emergence of the plants, or complete destruction of at least the aerial moieties, and 0 means no damage, or normal course of growth. A good herbicidal activity is given at values of at least 70 and a very good herbicidal activity is given at values of at least 85.
(§6) The plants used in the greenhouse experiments were of the following species: […]

Echinocloa crus-galli [2] = assay: greenhouse test, post-emergence treatment, ECHCG; conditions: post-emergence
How it was run: (§7)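 Herbicidal effect is rated 0–100, where 100 denotes total destruction of aerial parts and 0 denotes unaffected growth. Treatment occurs once plants reach 3–15 cm in humus-containing loamy sand, with compound applied in water; the trial runs 2–4 weeks at 10–25 °C or 20–35 °C.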

Alopecurus myosuroides [3] = assay: greenhouse test, pre-emergence treatment, ALOMY; conditions: 2000 g/ha
Excerpt: as §1
(§8) For the pre-emergence treatment, the active ingredients, which had been suspended or emulsified in water, were applied directly after sowing by means of finely distributing nozzles. The containers were irrigated gently to promote germination and growth and subsequently covered with transparent plastic hoods until the plants had rooted. This cover caused uniform germination of the test plants, unless this had been impaired by the active ingredients.
as §3, §4, §5, §6

Echinocloa crus-galli [4] = assay: greenhouse test, pre-emergence treatment, ECHCG
How it was run: (§9)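 Herbicidal effect rated on a 0-100 scale, where 0 is normal growth and 100 is no emergence or destroyed aerial parts, 2 to 4 weeks after soil application at sowing.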

Alopecurus myosuroides [5] = assay: greenhouse test, post-emergence treatment, ALOMY; conditions: post-emergence
How it was run: as §7

Lolium multiflorum = assay: greenhouse test, post-emergence treatment, LOLMU
Excerpt: as §1, §2, §3, §4, §5, §6

Polygonum convolvulus = assay: greenhouse test, post-emergence treatment, POLCO; conditions: 500 g/ha
Excerpt: as §1, §2, §3, §4, §5, §6

Amaranthus retroflexus = assay: greenhouse test, post-emergence treatment, AMARE
How it was run: as §7

Chenopodium album = assay: greenhouse test, post-emergence treatment, CHEAL; conditions: 250 g/ha
Excerpt: as §1, §2, §3, §4, §5, §6

Abutilon theophrasti [6] = assay: greenhouse test, post-emergence treatment, ABUTH; conditions: 2000 g/ha
How it was run: as §7

Setaria viridis = assay: greenhouse test, pre-emergence treatment, SETVI; conditions: 2000 g/ha
Excerpt: as §1, §8, §3, §4, §5, §6

Agrostis stolonifera = assay: greenhouse test, post-emergence treatment, AGSST
Excerpt: as §1, §2, §3, §4, §5, §6

Apera spica-venti [7] = assay: greenhouse test, pre-emergence treatment, APESV
How it was run: as §9

Poa annua [8] = assay: greenhouse test, pre-emergence treatment, POAAN
How it was run: as §9

Avena fatua = assay: greenhouse test, post-emergence treatment, AVEFA
How it was run: as §7

Matricaria inodora = assay: greenhouse test, pre-emergence treatment, MATIN; conditions: 2000 g/ha
Excerpt: as §1, §8, §3, §4, §5, §6

Poa annua [9] = assay: greenhouse test, post-emergence treatment, POAAN
Excerpt: as §1, §2, §3, §4, §5, §6

Abutilon theophrasti [10] = assay: greenhouse test, pre-emergence treatment, ABUTH; conditions: 2000 g/ha
Excerpt: as §1, §8, §3, §4, §5, §6

SMILES: CC(O)Cc1nc(C2CC2)ncc1-c1ccccc1Cl (stereo not drawn) [Ex. 105]
- herbicidal activity (Apera spica-venti [1]): very good (a very good herbicidal activity is given at values of at least 85)
- herbicidal activity (Echinocloa crus-galli [2]; 2000 g/ha): very good (a very good herbicidal activity is given at values of at least 85)
- herbicidal activity (Alopecurus myosuroides [3]): very good (a very good herbicidal activity is given at values of at least 85)
- herbicidal activity (Echinocloa crus-galli [4]; 2000 g/ha): very good (a very good herbicidal activity is given at values of at least 85)

SMILES: Cc1ccc(-c2nc(C3CC3)ncc2-c2ccccc2Br)o1 [Ex. 121]
- herbicidal activity (Alopecurus myosuroides [5]; 500 g/ha): very good (a very good herbicidal activity is given at values of at least 85)
- herbicidal activity (Echinocloa crus-galli [2]; 500 g/ha): very good (a very good herbicidal activity is given at values of at least 85)
- herbicidal activity (Lolium multiflorum; 500 g/ha): very good (a very good herbicidal activity is given at values of at least 85)
- herbicidal activity (Polygonum convolvulus): very good (a very good herbicidal activity is given at values of at least 85)

SMILES: Cc1nc(C)c(-c2nc(C3CC3)ncc2-c2ccccc2Br)o1 [Ex. 265]
- herbicidal activity (Alopecurus myosuroides [5]; 250 g/ha): good (A good herbicidal activity is given at values of at least 70)
- herbicidal activity (Amaranthus retroflexus; 250 g/ha): very good (a very good herbicidal activity is given at values of at least 85)
- herbicidal activity (Chenopodium album): good (A good herbicidal activity is given at values of at least 70)

SMILES: Brc1ccccc1-c1cnc(C2CC2)nc1C1CC1 [Ex. 39]
- herbicidal activity (Abutilon theophrasti [6]): very good (a very good herbicidal activity is given at values of at least 85)
- herbicidal activity (Amaranthus retroflexus; 2000 g/ha): very good (a very good herbicidal activity is given at values of at least 85)
- herbicidal activity (Setaria viridis): very good (a very good herbicidal activity is given at values of at least 85)

SMILES: C=C(C(=O)OC)c1nc(C2CC2)ncc1-c1ccccc1Cl [Ex. 221]
- herbicidal activity (Abutilon theophrasti [6]): very good (a very good herbicidal activity is given at values of at least 85)
- herbicidal activity (Echinocloa crus-galli [2]; 2000 g/ha): very good (a very good herbicidal activity is given at values of at least 85)
- herbicidal activity (Agrostis stolonifera; 2000 g/ha): very good (a very good herbicidal activity is given at values of at least 85)
- herbicidal activity (Apera spica-venti [7]; 2000 g/ha): very good (a very good herbicidal activity is given at values of at least 85)
- herbicidal activity (Echinocloa crus-galli [4]; 2000 g/ha): very good (a very good herbicidal activity is given at values of at least 85)
- herbicidal activity (Poa annua [8]; 2000 g/ha): very good (a very good herbicidal activity is given at values of at least 85)

SMILES: Clc1ccccc1-c1cnc(C2CC2)nc1-c1cnco1 [Ex. 260]
- herbicidal activity (Alopecurus myosuroides [5]; 2000 g/ha): very good (a very good herbicidal activity is given at values of at least 85)
- herbicidal activity (Avena fatua; 2000 g/ha): good (A good herbicidal activity is given at values of at least 70)
- herbicidal activity (Echinocloa crus-galli [2]; 2000 g/ha): good (A good herbicidal activity is given at values of at least 70)
- herbicidal activity (Apera spica-venti [7]; 2000 g/ha): good (A good herbicidal activity is given at values of at least 70)
- herbicidal activity (Echinocloa crus-galli [4]; 2000 g/ha): very good (a very good herbicidal activity is given at values of at least 85)
- herbicidal activity (Matricaria inodora): very good (a very good herbicidal activity is given at values of at least 85)

SMILES: Cc1ocnc1-c1nc(C2CC2)ncc1-c1ccccc1Cl [Ex. 267]
- herbicidal activity (Abutilon theophrasti [6]): very good (a very good herbicidal activity is given at values of at least 85)
- herbicidal activity (Echinocloa crus-galli [2]; 2000 g/ha): very good (a very good herbicidal activity is given at values of at least 85)
- herbicidal activity (Poa annua [9]; 2000 g/ha): very good (a very good herbicidal activity is given at values of at least 85)
- herbicidal activity (Echinocloa crus-galli [4]; 2000 g/ha): very good (a very good herbicidal activity is given at values of at least 85)
- herbicidal activity (Poa annua [8]; 2000 g/ha): very good (a very good herbicidal activity is given at values of at least 85)

SMILES: Cc1ncc(-c2nc(C3CC3)ncc2-c2ccccc2Cl)o1 [Ex. 244]
- herbicidal activity (Alopecurus myosuroides [5]; 500 g/ha): good (A good herbicidal activity is given at values of at least 70)
- herbicidal activity (Poa annua [9]; 500 g/ha): good (A good herbicidal activity is given at values of at least 70)
- herbicidal activity (Polygonum convolvulus): good (A good herbicidal activity is given at values of at least 70)
- herbicidal activity (Apera spica-venti [7]; 500 g/ha): very good (a very good herbicidal activity is given at values of at least 85)
- herbicidal activity (Echinocloa crus-galli [4]; 500 g/ha): very good (a very good herbicidal activity is given at values of at least 85)
- herbicidal activity (Poa annua [8]; 500 g/ha): very good (a very good herbicidal activity is given at values of at least 85)

SMILES: Cc1nc(C)c(-c2nc(C3CC3)ncc2-c2cc(C(F)F)ccc2Cl)o1 [Ex. 291]
- herbicidal activity (Alopecurus myosuroides [5]; 500 g/ha): good (A good herbicidal activity is given at values of at least 70)
- herbicidal activity (Avena fatua; 500 g/ha): good (A good herbicidal activity is given at values of at least 70)
- herbicidal activity (Lolium multiflorum; 500 g/ha): good (A good herbicidal activity is given at values of at least 70)
- herbicidal activity (Apera spica-venti [7]; 500 g/ha): very good (a very good herbicidal activity is given at values of at least 85)
- herbicidal activity (Echinocloa crus-galli [4]; 500 g/ha): very good (a very good herbicidal activity is given at values of at least 85)
- herbicidal activity (Poa annua [8]; 500 g/ha): very good (a very good herbicidal activity is given at values of at least 85)

SMILES: OCc1nc(C2CC2)ncc1-c1cc(F)ccc1Cl [Ex. 14]
- herbicidal activity (Lolium multiflorum; 250 g/ha): good (A good herbicidal activity is given at values of at least 70)
- herbicidal activity (Apera spica-venti [7]; 250 g/ha): very good (a very good herbicidal activity is given at values of at least 85)

SMILES: OC(c1cccs1)C(O)c1nc(C2CC2)ncc1-c1ccccc1Cl (stereo not drawn) [Ex. 247]
- herbicidal activity (Alopecurus myosuroides [5]; 500 g/ha): very good (a very good herbicidal activity is given at values of at least 85)
- herbicidal activity (Amaranthus retroflexus; 500 g/ha): very good (a very good herbicidal activity is given at values of at least 85)
- herbicidal activity (Agrostis stolonifera; 500 g/ha): very good (a very good herbicidal activity is given at values of at least 85)
- herbicidal activity (Apera spica-venti [7]; 500 g/ha): very good (a very good herbicidal activity is given at values of at least 85)
- herbicidal activity (Echinocloa crus-galli [4]; 500 g/ha): very good (a very good herbicidal activity is given at values of at least 85)
- herbicidal activity (Poa annua [8]; 500 g/ha): very good (a very good herbicidal activity is given at values of at least 85)

SMILES: Clc1ccccc1-c1cnc(C2CC2)nc1-c1nc2ccccc2[nH]1 [Ex. 297]
- herbicidal activity (Alopecurus myosuroides [5]; 2000 g/ha): very good (a very good herbicidal activity is given at values of at least 85)
- herbicidal activity (Avena fatua; 2000 g/ha): very good (a very good herbicidal activity is given at values of at least 85)
- herbicidal activity (Echinocloa crus-galli [2]; 2000 g/ha): very good (a very good herbicidal activity is given at values of at least 85)
- herbicidal activity (Abutilon theophrasti [10]): good (A good herbicidal activity is given at values of at least 70)
- herbicidal activity (Apera spica-venti [7]; 2000 g/ha): very good (a very good herbicidal activity is given at values of at least 85)
- herbicidal activity (Echinocloa crus-galli [4]; 2000 g/ha): good (A good herbicidal activity is given at values of at least 70)
